Data on four compounds can be found in patent publication US8580918B2, “Peptidic GLP-2 agonists” (Ferring B.V., priority 2009, dated 2013).

For series [1] the following is noted: in humans; cited from earlier work.
Series [2] in a line: Pharmacokinetics in rats after intravenous bolus injection (systemic clearance). The note with it: rat, adult male Sprague-Dawley rats, i.v. bolus, read-out: CL (ml/kg/min) Average. It is filed as in vivo. Put shortly: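 Adult male Sprague-Dawley rats (3-4, doubly cannulated) given IV jugular bolus at 0.1-1.0 mg/kg; serial carotid blood to K2EDTA plasma, LC/MS/MS quantitation. CL = dose/kg divided by AUC∞ (noncompartmental, trapezoid); mean ± SD.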

Where [3] appears, read: plasma, 0.2 mg FB/kg, dose 0.20 mg FB/kg.

Like-named read-outs stand apart in the source and are kept apart here. Where no end group is shown, it is not given here.

Regarding `CC[C@H](C)[C@H](NC(=O)[C@H](Cc1ccccc1)NC(=O)[C@H](CC(=O)O)NC(=O)[C@H](CCCN=C(N)N)NC(=O)[C@H](C)NC(=O)[C@H](C)NC(=O)[C@H](CC(C)C)NC(=O)[C@H](CC(N)=O)NC(=O)[C@H](CC(=O)O)NC(=O)[C@H](CC(C)C)NC(=O)[C@@H](NC(=O)[C@@H](NC(=O)[C@H](CC(N)=O)NC(=O)[C@H](CCSC)NC(=O)[C@H](CCC(=O)O)NC(=O)[C@H](CC(=O)O)NC(=O)[C@H](CO)NC(=O)[C@H](Cc1ccccc1)NC(=O)[C@H](CO)NC(=O)CNC(=O)[C@H](CC(=O)O)NC(=O)[C@H](C)NC(=O)[C@@H](N)Cc1cnc[nH]1)[C@@H](C)O)[C@@H](C)CC)C(=O)N[C@@H](CC(N)=O)C(=O)N[C@@H](Cc1c[nH]c2ccccc12)C(=O)N[C@@H](CC(C)C)C(=O)N[C@H](C(=O)N[C@@H](CCC(N)=O)C(=O)N[C@H](C(=O)N[C@@H](CCCCN)C(=O)N[C@H](C(=O)N[C@H](C(=O)N[C@@H](CC(=O)O)C(=O)O)[C@@H](C)O)[C@@H](C)CC)[C@@H](C)O)[C@@H](C)CC` [hGLP-2, reference compound], the “half-life (t1/2)” value in series [1] is reported as 10 min. In series [2] (plasma, dose 1.0 mg FB/kg), the clearance was 24.6 mL/kg/min.
As to `CC[C@H](C)[C@H](NC(=O)[C@H](Cc1ccccc1)NC(=O)[C@H](CC(=O)O)NC(=O)[C@H](CCCNC(=N)N)NC(=O)[C@H](C)NC(=O)[C@H](C)NC(=O)[C@H](CC(C)C)NC(=O)[C@H](CC(N)=O)NC(=O)[C@H](CC(=O)O)NC(=O)[C@H](CC(C)C)NC(=O)[C@@H](NC(=O)[C@@H](NC(=O)[C@H](CC(N)=O)NC(=O)[C@H](CCSC)NC(=O)[C@H](CCC(=O)O)NC(=O)[C@H](CC(=O)O)NC(=O)[C@H](CO)NC(=O)[C@H](Cc1ccccc1)NC(=O)[C@H](CO)NC(=O)CNC(=O)[C@H](CC(=O)O)NC(=O)CNC(=O)[C@@H](N)Cc1c[nH]cn1)[C@@H](C)O)[C@@H](C)CC)C(=O)N[C@@H](CC(N)=O)C(=O)N[C@@H](Cc1c[nH]c2ccccc12)C(=O)N[C@@H](CC(C)C)C(=O)N[C@H](C(=O)N[C@@H](CCC(N)=O)C(=O)N[C@H](C(=O)N[C@@H](CCCCN)C(=O)N[C@H](C(=O)N[C@H](C(=O)N[C@@H](CC(=O)O)C(=O)O)[C@@H](C)O)[C@@H](C)CC)[C@@H](C)O)[C@@H](C)CC` [teduglutide, [Gly2]hGLP 2, reference compound], the clearance is 9.9 mL/kg/min in series [2] (setting [3]) and 8 mL/kg/min in series [2] (plasma, dose 1.0 mg FB/kg).
As for “HGEGSFSSELSTILDALAARDFIAWLIATKITDKKKKKK-NH2 (C-terminus assumed) [ZP-1846, reference compound]”, the clearance in series [2] (in vivo, dose 0.20 mg FB/kg) was 2.8 mL/kg/min.
Regarding “HGEGTFSSELATILDALAARDFIAWLIATKITDKKKKKK-NH2 [ZP-1848, reference compound]”, the clearance in series [2] (setting [3]) came to 2.4 mL/kg/min.
